# Patent publication US12594277B2, “Macrocyclic ULK1/2 inhibitors” (SALK INSTITUTE FOR BIOLOGICAL STUDIES, priority 2020, dated 2026)
# Target: T1, recombinant human ULK1 protein (1-649) (Homo sapiens, UniProt O75385)
# T1 construct: recombinant human ULK1 protein (1-649, SignalChem #U01-11G); purchased SignalChem U01-11G
# T1 sequence (O75385 1-649): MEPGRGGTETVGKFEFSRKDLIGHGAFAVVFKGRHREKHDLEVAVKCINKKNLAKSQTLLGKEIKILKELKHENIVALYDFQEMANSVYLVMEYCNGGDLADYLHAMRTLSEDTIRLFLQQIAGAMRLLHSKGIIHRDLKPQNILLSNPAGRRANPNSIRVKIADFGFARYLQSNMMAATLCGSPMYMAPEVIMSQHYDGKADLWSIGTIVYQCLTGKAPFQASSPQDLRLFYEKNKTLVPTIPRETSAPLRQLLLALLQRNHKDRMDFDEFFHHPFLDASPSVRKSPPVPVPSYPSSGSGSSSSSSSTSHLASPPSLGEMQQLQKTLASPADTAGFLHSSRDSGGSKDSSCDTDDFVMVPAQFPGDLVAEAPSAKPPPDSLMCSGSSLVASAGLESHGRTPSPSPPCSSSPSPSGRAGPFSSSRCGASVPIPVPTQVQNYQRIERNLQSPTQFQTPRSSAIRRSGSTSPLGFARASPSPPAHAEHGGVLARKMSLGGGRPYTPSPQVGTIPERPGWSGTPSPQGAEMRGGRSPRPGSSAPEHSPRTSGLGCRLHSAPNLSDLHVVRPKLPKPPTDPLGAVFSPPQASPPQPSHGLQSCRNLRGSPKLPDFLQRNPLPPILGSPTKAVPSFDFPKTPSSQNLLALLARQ
# Experiment: ULK1 inhibition assay (ADP-Glo)
# Type: biochemical
# Settings: 2 ug/mL ULK1, 80 ug/mL myelin basic protein, 25 uM ATP, assessed after one hour
# Procedure: IC50s measured by ADP-Glo assay are represented nM, with A representing IC50<20 nM, B representing IC50>20 nM. NT indicates the compound was not tested. ULK1 inhibition assays were performed in a 5 uL reaction volume containing 2 ug/mL recombinant human ULK1 protein (1-649, SignalChem #U01-11G) and 80 ug/mL myelin basic protein (MBP, Sigma-Aldrich #M1891) in the presence of 25 uM ATP (Sigma-Aldrich A7699). ULK 1 inhibition was assessed after one hour. Compounds were tested in triplicate in a 16-dose IC50 mode with 3-fold serial dilution and a starting dose of 30 uM. Staurosporine, a non-selective protein kinase inhibitor, was used in the assay as a positive control. Three separate experiments were carried out.
row,IC50 [nM],SMILES
1,< 20,"C=CCCOc1ccc(Nc2nc(Nc3ccc(OC)c(OCC=C)c3)ncc2C(F)(F)F)c(C(=O)NC)c1 [Compound 8, 2-((2-((3-(Allyloxy)-4-methoxyphenyl)amino)-5-(trifluoromethyl)pyrimidin-4-yl)amino)-5-(but-3-en-1-yloxy)-N-methylbenzamide]"
2,> 20,"C=CCCOc1ccc(Nc2nc(Nc3ccc(OCC=C)c(OC)c3)ncc2C(F)(F)F)c(C(=O)NC)c1 [Compound 2, 2-((2-((4-(Allyloxy)-3-methoxyphenyl)amino)-5-(trifluoromethyl)pyrimidin-4-yl)amino)-5-(but-3-en-1-yloxy)-N-methylbenzamide]"
3,< 20,"CNC(=O)c1cc2ccc1Nc1nc(ncc1C(F)(F)F)Nc1ccc(c(OC)c1)OCCCCCCO2 [Compound 7, 1^3-Methoxy-N-methyl-3^5-(trifluoromethyl)-6,13-dioxa-2,4-diaza-3(2,4)-pyrimidina-1,5(1,4)-dibenzenacyclotridecaphane-5^2-carboxamide]"
4,> 20,C=CCCOc1ccc(Nc2nc(Nc3ccc(OCC=C)c(OC)c3)ncc2Br)c(C(=O)NC)c1 [Compound 11]
